Test results as given in the supplement of paper PMC10307832.

Key:
Experiment in all cases: relative viability (nuclei count vs DMSO), 5 days (fraction); higher = more cells survive
[1] = compound: C1COCCN1C2=NC(=NC3=C2OC4=C3C=CC=N4)C5=CC(=CC=C5)NC(=O)C6=CN=C(C=C6)N + O=C(c1cc(Cc2n[nH]c(=O)c3ccccc23)ccc1F)N1CCN(C(=O)C2CC2)CC1 [Olaparib] (partner 8 µM)
In short: (§1)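 One day after seeding in 1536-well plates, lung cancer cell lines were dosed by pin tool. Dosing was either single-drug or a fixed anchor-drug dose plus five library-drug doses (not always all listed) in √10 steps. After 5 days, nuclei were stained in one fix-and-stain step and counted on 4× images, and relative viability is the nuclei count of treated wells over that of vehicle wells, given as the median of duplicate plates.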

[2] = compound: C1COCCN1C2=NC(=NC3=C2OC4=C3C=CC=N4)C5=CC(=CC=C5)NC(=O)C6=CN=C(C=C6)N + Cc1nc(NC(=O)N2CCC[C@H]2C(N)=O)sc1-c1ccnc(C(C)(C)C(F)(F)F)c1 [Alpelisib] (partner 2 µM)
In short: as §1

[3] = compound: C1COCCN1C2=NC(=NC3=C2OC4=C3C=CC=N4)C5=CC(=CC=C5)NC(=O)C6=CN=C(C=C6)N + C[C@]1(O)C[C@@H](c2nc(-c3ccc4ccc(-c5ccccc5)nc4c3)c3c(N)nccn32)C1 [Linsitinib] (partner 1 µM)
In short: as §1

[4] = compound: C1COCCN1C2=NC(=NC3=C2OC4=C3C=CC=N4)C5=CC(=CC=C5)NC(=O)C6=CN=C(C=C6)N + C[C@@H](Oc1cc(-c2cnn(C3CCNCC3)c2)cnc1N)c1c(Cl)ccc(F)c1Cl [Crizotinib] (partner 1 µM)
In short: as §1

## IA-LM
[1]; first compound 0.02 µM
  relative viability: 0.858
[1]; first compound 0.06325 µM
  relative viability: 0.826
[1]; first compound 0.2 µM
  relative viability: 0.689
[1]; first compound 0.6325 µM
  relative viability: 0.616
[1]; first compound 2 µM
  relative viability: 0.394
[2]; first compound 0.06325 µM
  relative viability: 0.853
[2]; first compound 0.2 µM
  relative viability: 0.582
[2]; first compound 0.6325 µM
  relative viability: 0.609
[2]; first compound 2 µM
  relative viability: 0.43
[3]; first compound 0.02 µM
  relative viability: 0.439
[3]; first compound 0.06325 µM
  relative viability: 0.696
[3]; first compound 0.2 µM
  relative viability: 0.526
[3]; first compound 0.6325 µM
  relative viability: 0.565
[3]; first compound 2 µM
  relative viability: 0.327
[4]; first compound 0.02 µM
  relative viability: 1.05
[4]; first compound 0.06325 µM
  relative viability: 0.733
[4]; first compound 0.2 µM
  relative viability: 0.619
[4]; first compound 0.6325 µM
  relative viability: 0.58
[4]; first compound 2 µM
  relative viability: 0.369

## LC-2-ad
[1]; first compound 0.02 µM
  relative viability: 0.678
[1]; first compound 0.06325 µM
  relative viability: 0.705
[1]; first compound 0.2 µM
  relative viability: 0.682
[1]; first compound 0.6325 µM
  relative viability: 0.846
[1]; first compound 2 µM
  relative viability: 0.648
[2]; first compound 0.02 µM
  relative viability: 0.824
[2]; first compound 0.06325 µM
  relative viability: 0.83
[2]; first compound 0.2 µM
  relative viability: 0.893
[2]; first compound 0.6325 µM
  relative viability: 0.782
[2]; first compound 2 µM
  relative viability: 0.531
[3]; first compound 0.02 µM
  relative viability: 0.836
[3]; first compound 0.06325 µM
  relative viability: 0.866
[3]; first compound 0.2 µM
  relative viability: 0.837
[3]; first compound 0.6325 µM
  relative viability: 0.826
[3]; first compound 2 µM
  relative viability: 0.589
[4]; first compound 0.02 µM
  relative viability: 0.486
[4]; first compound 0.06325 µM
  relative viability: 0.494
[4]; first compound 0.2 µM
  relative viability: 0.411
[4]; first compound 0.6325 µM
  relative viability: 0.5
[4]; first compound 2 µM
  relative viability: 0.387

## LCLC-97TM1
[1]; first compound 0.02 µM
  relative viability: 0.533
[1]; first compound 0.06325 µM
  relative viability: 0.388
[1]; first compound 0.2 µM
  relative viability: 0.341
[1]; first compound 0.6325 µM
  relative viability: 0.33
[1]; first compound 2 µM
  relative viability: 0.287
[2]; first compound 0.06325 µM
  relative viability: 0.265
[2]; first compound 0.2 µM
  relative viability: 0.208
[2]; first compound 0.6325 µM
  relative viability: 0.313
[2]; first compound 2 µM
  relative viability: 0.249
[3]; first compound 0.06325 µM
  relative viability: 0.199
[3]; first compound 0.2 µM
  relative viability: 0.174
[3]; first compound 0.6325 µM
  relative viability: 0.232
[3]; first compound 2 µM
  relative viability: 0.22
[4]; first compound 0.06325 µM
  relative viability: 0.407
[4]; first compound 0.2 µM
  relative viability: 0.321
[4]; first compound 0.6325 µM
  relative viability: 0.341
[4]; first compound 2 µM
  relative viability: 0.308

## LCLC-103H
[1]; first compound 0.02 µM
  relative viability: 0.732
[1]; first compound 0.06325 µM
  relative viability: 0.799
[1]; first compound 0.2 µM
  relative viability: 0.815
[1]; first compound 0.6325 µM
  relative viability: 0.745
[1]; first compound 2 µM
  relative viability: 0.502
[2]; first compound 0.02 µM
  relative viability: 0.87
[2]; first compound 0.06325 µM
  relative viability: 0.993
[2]; first compound 0.2 µM
  relative viability: 0.962
[2]; first compound 0.6325 µM
  relative viability: 0.967
[2]; first compound 2 µM
  relative viability: 0.878
[3]; first compound 0.02 µM
  relative viability: 1.05
[3]; first compound 0.06325 µM
  relative viability: 1.15
[3]; first compound 0.2 µM
  relative viability: 1.21
[3]; first compound 0.6325 µM
  relative viability: 1.03
[3]; first compound 2 µM
  relative viability: 0.978
[4]; first compound 0.02 µM
  relative viability: 1.03
[4]; first compound 0.06325 µM
  relative viability: 1.15
[4]; first compound 0.2 µM
  relative viability: 1.09
[4]; first compound 0.6325 µM
  relative viability: 0.957
[4]; first compound 2 µM
  relative viability: 0.974

## LK-2
[1]; first compound 0.02 µM
  relative viability: 0.609
[1]; first compound 0.06325 µM
  relative viability: 0.902
[1]; first compound 0.2 µM
  relative viability: 0.691
[1]; first compound 0.6325 µM
  relative viability: 0.651
[1]; first compound 2 µM
  relative viability: 0.464
[2]; first compound 0.02 µM
  relative viability: 1.07
[2]; first compound 0.06325 µM
  relative viability: 1.15
[2]; first compound 0.2 µM
  relative viability: 1.2
[2]; first compound 0.6325 µM
  relative viability: 1.06
[2]; first compound 2 µM
  relative viability: 0.856
[3]; first compound 0.02 µM
  relative viability: 0.464
[3]; first compound 0.06325 µM
  relative viability: 0.797
[3]; first compound 0.2 µM
  relative viability: 0.625
[3]; first compound 0.6325 µM
  relative viability: 0.624
[3]; first compound 2 µM
  relative viability: 0.395
[4]; first compound 0.02 µM
  relative viability: 0.21
[4]; first compound 0.06325 µM
  relative viability: 0.247
[4]; first compound 0.2 µM
  relative viability: 0.203
[4]; first compound 0.6325 µM
  relative viability: 0.279
[4]; first compound 2 µM
  relative viability: 0.258

## LOU-NH91
[1]; first compound 0.02 µM
  relative viability: 0.928
[1]; first compound 0.06325 µM
  relative viability: 0.959
[1]; first compound 0.2 µM
  relative viability: 0.942
[1]; first compound 0.6325 µM
  relative viability: 0.864
[1]; first compound 2 µM
  relative viability: 0.745
[2]; first compound 0.02 µM
  relative viability: 0.696
[2]; first compound 0.06325 µM
  relative viability: 0.728
[2]; first compound 0.2 µM
  relative viability: 0.768
[2]; first compound 0.6325 µM
  relative viability: 0.749
[2]; first compound 2 µM
  relative viability: 0.667
[3]; first compound 0.02 µM
  relative viability: 0.893
[3]; first compound 0.06325 µM
  relative viability: 0.998
[3]; first compound 0.2 µM
  relative viability: 0.989
[3]; first compound 0.6325 µM
  relative viability: 0.92
[3]; first compound 2 µM
  relative viability: 0.769
[4]; first compound 0.02 µM
  relative viability: 0.729
[4]; first compound 0.06325 µM
  relative viability: 0.755
[4]; first compound 0.2 µM
  relative viability: 0.76
[4]; first compound 0.6325 µM
  relative viability: 0.74
[4]; first compound 2 µM
  relative viability: 0.664

## LU99A
[1]; first compound 0.02 µM
  relative viability: 0.264
[1]; first compound 0.06325 µM
  relative viability: 0.27
[1]; first compound 0.2 µM
  relative viability: 0.226
[1]; first compound 0.6325 µM
  relative viability: 0.262
[1]; first compound 2 µM
  relative viability: 0.222
[2]; first compound 0.02 µM
  relative viability: 0.608
[2]; first compound 0.06325 µM
  relative viability: 0.46
[2]; first compound 0.2 µM
  relative viability: 0.41
[2]; first compound 0.6325 µM
  relative viability: 0.379
[2]; first compound 2 µM
  relative viability: 0.284
[3]; first compound 0.02 µM
  relative viability: 0.517
[3]; first compound 0.06325 µM
  relative viability: 0.583
[3]; first compound 0.2 µM
  relative viability: 0.435
[3]; first compound 0.6325 µM
  relative viability: 0.353
[3]; first compound 2 µM
  relative viability: 0.236
[4]; first compound 0.02 µM
  relative viability: 0.602
[4]; first compound 0.06325 µM
  relative viability: 0.65
[4]; first compound 0.2 µM
  relative viability: 0.477
[4]; first compound 0.6325 µM
  relative viability: 0.49
[4]; first compound 2 µM
  relative viability: 0.327

## LXF-289
[1]; first compound 0.02 µM
  relative viability: 1.13
[1]; first compound 0.06325 µM
  relative viability: 1.18
[1]; first compound 0.2 µM
  relative viability: 1.17
[1]; first compound 0.6325 µM
  relative viability: 1.06
[1]; first compound 2 µM
  relative viability: 0.803
[2]; first compound 0.02 µM
  relative viability: 1.12
[2]; first compound 0.06325 µM
  relative viability: 1.09
[2]; first compound 0.2 µM
  relative viability: 1.02
[2]; first compound 0.6325 µM
  relative viability: 1
[2]; first compound 2 µM
  relative viability: 0.785
[3]; first compound 0.02 µM
  relative viability: 1.02
[3]; first compound 0.06325 µM
  relative viability: 1.07
[3]; first compound 0.2 µM
  relative viability: 0.975
[3]; first compound 0.6325 µM
  relative viability: 0.986
[3]; first compound 2 µM
  relative viability: 0.76
[4]; first compound 0.02 µM
  relative viability: 0.859
[4]; first compound 0.06325 µM
  relative viability: 0.903
[4]; first compound 0.2 µM
  relative viability: 0.821
[4]; first compound 0.6325 µM
  relative viability: 0.858
[4]; first compound 2 µM
  relative viability: 0.604
